# Tests used:
# Assay type in all cases: cell-based
# HIV-1 IIIB = experiment: Antiviral activity of recombinant lentiviruses against HIV-1 IIIB in H9 cells (P24 antigen ELISA); settings: H9 + HIV-1 IIIB, positive drug, concentration 1 μM; for Relative concentration(%): vs no-drug control = 100; for Average concentration of P24: day 7
# Method: The H9 cells were resuscitated and subcultured in complete medium (RPMI-1640+10% FBS+PS). The cells were resuspended in OPTI-MEM medium, counted and adjusted to a concentration of 5×10^5 cells/ml, and inoculated in 6-well plates with 2 ml per well. The experimental groups SIV-Gag3, SIV-Gag2, SIV-Gag1, SIV-LTR2 or SIV-Nef, SIV-EGFP empty vector control group and blank control group (no HIV-1 IIIB infection, and […]) were set on the 6-well plates. The above recombinant lentiviruses were added to the 6-well plates with the multiplicity of infection (MOI) of 2000, mixed, and cultured at 37° C., 5% CO2 for 24 hours. Each well was supplemented with 4 ml complete medium and cultured at 37° C., 5% CO2 for 72 hours.
# (§1) 5 ml of supernatant from each well of 6-well plates was discarded and another 5 ml of fresh complete medium was added. Cells were diluted and inoculated in 96-well plates at 1×10^4 cells/well. 0.5 ml of HIV-1 IIIB was diluted with 5.75 ml of complete medium and mixed. Then 100 μl of virus diluent was added to each well of cells, except for the blank control group, mixed and incubated at 37° C. and 5% CO2. Half volume of liquid was changed on day 2 and day 4 after HIV-1 IIIB infection, respectively. 150 μl of sample was taken from each well on day 7 after infection, sealed and heated at 56° C. for 30 minutes. After the HIV viruses were thermally inactivated, the sample was stored at −20° C., ready for ELISA detection.
# HIV-1 P24 antigen detection kit (96T) (Beijing Jinboyi Biotechnology Co., Ltd.) was used for ELISA detection. The OD Value was measured with a microplate reader. Then average value, and relative concentration was calculated to determine the antiviral activity of the recombinant lentiviruses against HIV-1 IIIB in H9 cells.
# The H9 cells were resuscitated and subcultured in complete medium (RPMI-1640+10% FBS+PS). The cells were resuspended in OPTI-MEM medium, counted and adjusted to a concentration of 5×10^5 cells/ml, and inoculated in 6-well plates with 2 ml per well. The experimental groups SIV-G3L2, SIV-G2L2, SIV-G1L2, or SIV-G2N, SIV-EGFP empty vector control group, positive drug control group (Efavirenz, EFV, Shanghai Desano Pharmaceuticals Co., Ltd., Concentration 1 μM), no-drug control group (HIV-1 IIIB infection, and no recombinant lentivirus drug administration) and blank control group (no HIV-1 IIIB infection, and no lentivirus drug administration) were set on the 6-well plates. The recombinant lentiviruses were added to the 6-well plates at five doses with the multiplicity of infection (MOI) of 125, 250, 500, 1000, and 2000, and the added volumes were 2.1 μL, 4.2 μL, 8.4 μL, 16.7 μL, 33.3 μL, respectively, with one well for each dose. The recombinant lentivirus SIV-EGFP with MOI of 2000 was added as an empty vector control, the volume was 33.3 μL. Mixed, and cultured at 37° C. and 5% CO2 for 24 hours. Each well was supplemented with 4 ml complete medium and cultured at 37° C., 5% CO2 for 72 hours.
# as §1, with “the cells” for “Cells”
# [1] = tested on: HIV reverse transcriptase inhibitor resistant strain MT2-010; experiment: Antiviral activity against reverse transcriptase inhibitor resistant strain MT2-010 in MT2 cells (P24 ELISA); settings: MT2 + MT2-010, positive drug, concentration 1 μM; for Average concentration: P24 ELISA; for Relative concentration(%): vs no-drug control = 100
# Method: The experimental design of example 4 was the same as that of Example 3, except that the tested strain was a reverse transcriptase inhibitor resistant strain MT2-010, and the infected cells were MT2 cells. Firstly, cell culture and recombinant lentivirus infection: the experimental group SIV-G3L2 or
# (§2) SIV-G2N, SIV-EGFP empty vector control group, positive drug control group (Efavirenz, EFV, Shanghai Desano Pharmaceuticals Co., Ltd., Concentration 1 μM), no drug control group (MT2-010 infection, and no recombinant lentivirus drug administration), and a blank control group were set on the 6-well plates. The recombinant lentiviruses were added to the 6-well plates with the multiplicity of infection (MOI) of 125, 250, 500, 1000 and 2000, respectively, and the recombinant lentivirus SIV-EGFP with MOI of 2000 was added as an empty vector control. Mixed and cultured.
# Then virus challenge: the MT2 cells were diluted and inoculated in 96-well plates at 1×10^4 cells/well. The reverse transcriptase inhibitor resistant strain MT2-010 was diluted with complete culture medium, and mixed. The virus diluent was added into each well of cells, except for the blank control group. Mixed and cultured. The sampling was performed as described in Example 3, and ELISA detection was performed by using the above-mentioned kit. The OD value was measured with a microplate reader. Then average value, and relative concentration was calculated to determine the antiviral activity of the recombinant lentiviruses against MT2-010 in MT2 cells.
# [2] = tested on: HIV protease inhibitor resistant strain MT2-884; experiment: Antiviral activity against protease inhibitor resistant strain MT2-884 in MT2 cells (P24 ELISA); settings: Table 9, MT2 + MT2-884, positive drug, concentration 1 μM
# Method: as §2, with “The experimental method of example 5 was the same as Step 1 of Example 3, except that the tested strain was a protease inhibitor resistant strain MT2-884, and the infected cells were MT2 cells. Firstly, cell culture and recombinant lentivirus SIV-G3L2 or SIV-G2N infection: Cells were cultured in 6-well plates, and the experimental group SIV-G3L2 or SIV-G2N,” for “SIV-G2N,”, “(MT2-884” for “(MT2-010”
# Then virus challenge: the MT2 cells were diluted and inoculated in 96-well plates at 1×10^4 cells/well. […] The OD value was measured with a microplate reader. then average value, and relative concentration was calculated to determine the antiviral activity of the recombinant lentiviruses against MT2-884 in MT2 cells.
structure (smiles),measurement,setting,value
"O=C1Nc2ccc(Cl)cc2[C@@](C#CC2CC2)(C(F)(F)F)O1 [EFV, Efavirenz]",Average concentration,"HIV-1 IIIB; Table 3, P24 ELISA day 7",10
same,Relative concentration(%),HIV-1 IIIB; Table 3,0.05%
same,Average concentration of P24,HIV-1 IIIB; Table 4,<10 pg/mL
same,Relative concentration(%),HIV-1 IIIB; Table 4,0.05%
same,Average concentration of P24,HIV-1 IIIB; Table 5,<10 pg/mL
same,Relative concentration(%),HIV-1 IIIB; Table 5,0.05%
same,Average concentration of P24,HIV-1 IIIB; Table 6,<10 pg/mL
same,Relative concentration(%),HIV-1 IIIB; Table 6,0.05%
same,Average concentration,[1]; Table 7,52.69
same,Relative concentration(%),[1]; Table 7,0.17%
same,Average concentration,[1]; Table 8,59.36
same,Relative concentration(%),[1]; Table 8,0.21%
same,Average concentration(pg/ml),[2]; P24 ELISA,50 pg/mL
same,Relative concentration(%),[2]; vs no-drug control = 100,0.51%

# From patent US20250101429A1, “siRNAs and shRNAs Targeting HIV and Combinations, Expression Cassettes, Cells and Use Thereof” (BEIJING SOLOBIO GENETECHNOLOGY CO., LTD., priority 2021, published 2025)
